Assay results as given in PubChem BioAssay (NCI).
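Method: 48-hour compound exposure of cells in 96-well plates, five concentrations, linear interpolation of endpoints. GI50 is the concentration that inhibits growth by half. TGI: concentration producing complete growth inhibition.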

Legend:
Assay in all cases: NCI anticancer screen, dose series, 48 h
HOP-92 NSCLC = test system: HOP-92 NSCLC
OVCAR-5 ovarian = test system: OVCAR-5 ovarian
UO-31 renal = test system: UO-31 renal
OVCAR-4 ovarian = test system: OVCAR-4 ovarian
M14 melanoma = test system: M14 melanoma
NCI-H23 lung = test system: NCI-H23 lung
SNB-19 CNS = test system: SNB-19 CNS
RXF 393 renal = test system: RXF 393 renal
PC-3 prostate = test system: PC-3 prostate
DU-145 prostate = test system: DU-145 prostate

SMILES | TGI (HOP-92 NSCLC) | TGI (OVCAR-5 ovarian) | TGI (UO-31 renal) | TGI (OVCAR-4 ovarian) | TGI (M14 melanoma) | TGI (NCI-H23 lung) | TGI (SNB-19 CNS) | TGI (RXF 393 renal) | TGI (PC-3 prostate) | TGI (DU-145 prostate) | GI50 (HOP-92 NSCLC) | GI50 (PC-3 prostate) | GI50 (OVCAR-5 ovarian) | GI50 (UO-31 renal) | GI50 (OVCAR-4 ovarian) | GI50 (DU-145 prostate) | GI50 (NCI-H23 lung) | GI50 (M14 melanoma) | GI50 (RXF 393 renal)
CCC(C)C(N)C(=O)NC(CC(N)=O)C(=O)NC(CC(C)C)C(=O)NC(CCCCN)C(=O)NC(C)C(=O)NC(CC(C)C)C(=O)NC(C)C(=O)NC(C)C(=O)NC(CC(C)C)C(=O)NC(C)C(=O)NC(CCCCN)C(=O)NC(CCCCN)C(=O)NC(C(=O)NC(CC(C)C)C(N)=O)C(C)CC (configuration not stated) | 5.38 µM | 28 µM | 32.1 µM | 31.9 µM | 8.64 µM | 29 µM | 27.8 µM | 21.7 µM |  |  |  |  |  |  |  |  |  |  | 
O=c1c2ccccc2[nH]n1Cc1ccccc1 | > 100 µM | > 100 µM | > 100 µM | > 100 µM | > 100 µM | > 100 µM | > 100 µM | > 100 µM | > 100 µM | > 100 µM |  |  |  |  |  |  |  |  | 
COc1cc(OC)cc(-c2ccc(-c3ccc(C(=N)N)cn3)o2)c1 | 2.87 µM | 3.2 µM | 3.06 µM | 3.46 µM |  |  |  |  | 3.14 µM | 3.25 µM | 1.42 µM | 1.65 µM | 1.74 µM | 1.59 µM | 1.74 µM | 1.76 µM |  |  | 
Cc1[nH]c(=O)[nH]c(=O)c1/C=C/C(=O)O (tested in a mixture with another compound) | 623 µM | > 625 µM | > 625 µM | > 625 µM |  | > 625 µM | > 625 µM | > 625 µM |  |  |  |  |  |  |  |  |  |  | 
OC1c2ccccc2CCC1CN1CCN(CCOC(c2ccc(F)cc2)c2ccc(F)cc2)CC1 (configuration not stated) | 24.4 µM |  |  | > 100 µM | 27.6 µM | 32.2 µM | > 100 µM | 19.3 µM | > 100 µM | 61.4 µM |  |  |  |  |  |  |  |  | 
CSCC[C@@H]1C(=O)N(C)[C@H](C(C)(C)C)N1C(=O)c1ccccc1 | > 100 µM | > 100 µM | > 100 µM | > 100 µM |  | > 100 µM | > 100 µM | > 100 µM |  |  |  |  |  |  |  |  |  |  | 
CSc1nc(C)cc(Nc2ccc(O)c(CN3CCOCC3)c2)n1 | > 100 µM | > 100 µM | > 100 µM | > 100 µM | > 100 µM | > 100 µM | > 100 µM | > 100 µM | > 100 µM | > 100 µM |  |  |  |  |  |  |  |  | 
N#CC(N=Nc1ccccc1C(=O)O)C(N)=O (configuration not stated) |  | > 100 µM | > 100 µM | > 100 µM | > 100 µM | > 100 µM | > 100 µM | > 100 µM | > 100 µM | > 100 µM |  |  |  |  |  |  |  |  | 
COc1cc2c3cc1Oc1c(O)c(OC)cc4c1C(Cc1ccc(O)c(c1)Oc1ccc(cc1)CC3N(C)CC2)N(C)CC4 (configuration not stated) | 24.3 µM | 38.4 µM | 29.3 µM | 28.2 µM | 7.8 µM | 39 µM | 68 µM | 9.7 µM |  |  |  |  |  |  |  |  |  |  | 
CC(CC(N)C(=O)O)C(=O)O (configuration not stated) | > 100 µM | > 100 µM | > 100 µM | > 100 µM | > 100 µM | > 100 µM | > 100 µM | > 100 µM | > 100 µM | > 100 µM |  |  |  |  |  |  |  |  | 
COc1cccc(/C=N/NC(=O)CSCC(=O)N/N=C/c2cccc(OC)c2OC)c1OC | > 100 µM | > 100 µM | > 100 µM | > 100 µM | > 100 µM | > 100 µM | > 100 µM | > 100 µM | > 100 µM | > 100 µM |  |  |  |  |  |  |  |  | 
CN(C)c1ccc(/C=C/c2ccc(S(N)(=O)=O)cc2)cc1 | 36 µM | 53.6 µM | 34.5 µM | 10.1 µM | 35.9 µM | 44 µM | 44.9 µM | > 100 µM | 34.8 µM | 49.8 µM | 16.6 µM |  |  |  | 3.35 µM |  | 14.2 µM |  | 
CC1(C)[C@@H]2CC[C@]1(C)[C@H](OC(=O)/C=C/c1ccccc1)C2 |  | 39.1 µM | 34 µM | 55.1 µM | 70.8 µM | 50.8 µM | 36.3 µM | 33.2 µM | 56.4 µM | 47.9 µM |  |  |  |  |  |  |  |  | 
COc1nc2cccc(C(O)c3ccccc3)c2nc1-c1ccccc1 (configuration not stated) | 31.8 µM | 54.8 µM | 68.7 µM | > 100 µM | 21.2 µM | 35.5 µM | 51.1 µM | 14.6 µM | 65.5 µM | 26.9 µM |  |  |  |  |  |  |  |  | 
O=C1C=CC2OC(c3ccccc3)C(O)C2O1 (configuration not stated) | 10.2 µM | 21.5 µM | 21.1 µM | 17.9 µM |  | 12.6 µM | 30.2 µM | 4.47 µM |  |  |  |  |  |  |  |  |  |  | 
COc1cc(C(=O)O[C@H](C(=O)NCCCNC(=O)[C@@H](OC(=O)c2cc(OC)cc3c(C)cccc23)[C@]2(C)CO2)[C@]2(C)CO2)c2cccc(C)c2c1 | 0.15 µM | 1.45 µM | > 100 µM | 0.231 µM |  | 0.0224 µM | 0.701 µM | < 0.01 µM | 0.477 µM | < 0.01 µM | < 0.0113 µM | < 0.0367 µM | 0.168 µM | 0.705 µM | < 0.01 µM | < 0.01 µM | < 0.01 µM | < 0.0486 µM | < 0.01 µM
CC(=O)c1[nH]c(NC(C)C)c(C(=S)Nc2ccccc2)c1N | 92.4 µM | > 100 µM | 77.7 µM | > 100 µM | 39.7 µM | > 100 µM | 91.5 µM | 50.3 µM |  | > 100 µM |  |  |  |  |  |  |  |  | 
Cc1c[n+]2c3ccccc3c3ccccc3c2s1 | 47.4 µM | 12.8 µM | 14.5 µM | 32.7 µM | 35.4 µM | 3.9 µM | 15.6 µM | 0.559 µM |  |  |  |  |  |  |  |  |  |  | 
C=CCN1/C(=C(\C#N)c2nc3ccccc3[nH]2)Sc2c1nc[nH]c2=O | > 100 µM | > 100 µM | > 100 µM | > 100 µM | > 100 µM | > 100 µM | > 100 µM | > 100 µM |  |  |  |  |  |  |  |  |  |  | 
OCC1COc2cc(Cl)c(Cl)cc2O1 (configuration not stated) |  | > 10 µM | > 10 µM | > 10 µM | > 10 µM | > 10 µM | > 10 µM | > 10 µM | > 10 µM | > 10 µM |  |  |  |  |  |  |  |  | 
COc1cc(C2c3cc4c(cc3[C@@H](Nc3cccc(CO)c3)C3COC(=O)[C@H]23)OCO4)cc(OC)c1O (some centres not stated) | 13.3 µM | 11.5 µM | 10.4 µM | 30.4 µM |  | 2.77 µM | 15.7 µM | 6.05 µM |  |  |  |  |  |  |  |  |  |  | 
